Experimental findings from ChEMBL document CHEMBL5233245, “Monocarboxylate transporter 1 and 4 inhibitors as potential therapeutics for treating solid tumours: A review with structure-activity relationship insights” (Eur J Med Chem, 2020) are described below.

The test concerns the target T1, Monocarboxylate transporter 1 (Rattus norvegicus) (UniProt P53987).
T1 sequence (whole entry): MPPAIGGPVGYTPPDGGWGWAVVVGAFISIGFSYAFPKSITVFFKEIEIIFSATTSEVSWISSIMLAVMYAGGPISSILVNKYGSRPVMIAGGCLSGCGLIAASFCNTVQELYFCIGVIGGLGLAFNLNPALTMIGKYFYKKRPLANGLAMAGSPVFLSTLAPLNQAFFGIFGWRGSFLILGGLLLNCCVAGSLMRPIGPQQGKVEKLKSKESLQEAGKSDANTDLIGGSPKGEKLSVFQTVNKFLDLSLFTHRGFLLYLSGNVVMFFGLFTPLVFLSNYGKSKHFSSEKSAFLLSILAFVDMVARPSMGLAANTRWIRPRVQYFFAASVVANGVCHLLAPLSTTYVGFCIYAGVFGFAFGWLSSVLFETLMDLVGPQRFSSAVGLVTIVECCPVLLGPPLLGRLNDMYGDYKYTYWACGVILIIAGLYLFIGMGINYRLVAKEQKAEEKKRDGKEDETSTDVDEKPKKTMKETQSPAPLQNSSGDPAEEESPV
Description: Inhibition of rat MCT1 expressed in human MDA-MB-231 cells in presence of [3H]-GHB by liquid scintillation spectroscopy analysis. Type of test: cell-based. Also on record: concentration or dose not given beside the values. Particulars: concentration not given here.

The term inhibition denotes the share of the control response that was lost under treatment. With `O=c1c(O)c(-c2ccc(O)c(O)c2)oc2cc(O)cc(O)c12`, the inhibition worked out at 87%.

On to `O=c1cc(-c2ccc(O)cc2)oc2cc(O)cc(O)c12`, for which the inhibition was determined as 50%.

Turning to `O=c1c(O)c(-c2ccc(O)c(O)c2)oc2cc(O)ccc12`, the inhibition was found to be 93%.

On to `O=c1cc(-c2ccc(O)c(O)c2)oc2cc(O)cc(O)c12`, for which the inhibition is 100%.

Consider `O=c1c(O)c(-c2ccc(O)cc2O)oc2cc(O)cc(O)c12`, for which the inhibition was found to be 100%.

Turning to `COc1ccc(-c2cc(=O)c3c(O)cc(O)cc3o2)cc1O`, the inhibition is 49%.
